# Data as given in ChEMBL document CHEMBL1131922, “Synthesis and biological evaluation of cryptophycin analogs with substitution at C-6 (fragment C region)” (Bioorg Med Chem Lett, 1999).
# Tested on: CCRF-CEM
# Experiment: In vitro cytotoxicity against human leukemia CCRF-CEM cell line
# Format: functional, cell-based
row,Structure (SMILES),IC50
1,COc1ccc(C[C@H]2NC(=O)/C=C/C[C@@H]([C@H](C)[C@@H](O)[C@@H](Cl)c3ccccc3)OC(=O)[C@H](CC(C)C)OC(=O)C3(CCCCC3)CNC2=O)cc1Cl,110 nM
2,COc1ccc(C[C@H]2NC(=O)/C=C/C[C@@H]([C@H](C)[C@H]3O[C@@H]3c3ccccc3)OC(=O)[C@H](CC(C)C)OC(=O)C3(CC3)CNC2=O)cc1Cl,0.16 nM
3,CCCC1(CCC)CNC(=O)[C@@H](Cc2ccc(OC)c(Cl)c2)NC(=O)/C=C/C[C@@H]([C@H](C)[C@@H](O)[C@@H](Cl)c2ccccc2)OC(=O)[C@H](CC(C)C)OC1=O,8.7 nM
4,COc1ccc(C[C@H]2NC(=O)/C=C/C[C@@H]([C@H](C)[C@@H](O)[C@@H](Cl)c3ccccc3)OC(=O)[C@H](CC(C)C)NC(=O)C3(CC3)CNC2=O)cc1Cl,0.01 nM
5,CCC1(CC)CNC(=O)[C@@H](Cc2ccc(OC)c(Cl)c2)NC(=O)/C=C/C[C@@H]([C@H](C)[C@H]2O[C@@H]2c2ccccc2)OC(=O)[C@H](CC(C)C)OC1=O,1.1 nM
6,COc1ccc(C[C@H]2NC(=O)/C=C/C[C@@H]([C@H](C)[C@@H](O)[C@@H](Cl)c3ccccc3)OC(=O)[C@H](CC(C)C)OC(=O)C3(CC3)CNC2=O)cc1Cl,0.014 nM
7,CCCC1(CCC)CNC(=O)[C@@H](Cc2ccc(OC)c(Cl)c2)NC(=O)/C=C/C[C@@H]([C@H](C)[C@H]2O[C@@H]2c2ccccc2)OC(=O)[C@H](CC(C)C)OC1=O,8.5 nM
8,COc1ccc(C[C@H]2NC(=O)/C=C/C[C@@H]([C@H](C)[C@@H](O)[C@@H](Cl)c3ccccc3)OC(=O)[C@H](CC(C)C)OC(=O)C(C)(C)CNC2=O)cc1Cl,0.05 nM
9,COc1ccc(C[C@H]2NC(=O)/C=C/C[C@@H]([C@H](C)[C@@H](O)[C@@H](Cl)c3ccccc3)OC(=O)[C@H](CC(C)C)NC(=O)C(C)(C)CNC2=O)cc1Cl,0.016 nM
10,COc1ccc(C[C@H]2NC(=O)/C=C/C[C@@H]([C@H](C)[C@@H](O)[C@@H](Cl)c3ccccc3)OC(=O)[C@H](CC(C)C)OC(=O)C3(CCCC3)CNC2=O)cc1Cl,0.4 nM
11,CCC1(CC)CNC(=O)[C@@H](Cc2ccc(OC)c(Cl)c2)NC(=O)/C=C/C[C@@H]([C@H](C)[C@@H](O)[C@@H](Cl)c2ccccc2)OC(=O)[C@H](CC(C)C)OC1=O,1.6 nM
12,COc1ccc(C[C@H]2NC(=O)/C=C/C[C@@H]([C@H](C)[C@H]3O[C@@H]3c3ccccc3)OC(=O)[C@H](CC(C)C)OC(=O)C3(CCCCC3)CNC2=O)cc1Cl,63 nM
13,COc1ccc(C[C@H]2NC(=O)/C=C/C[C@@H]([C@H](C)[C@H]3O[C@@H]3c3ccccc3)OC(=O)[C@H](CC(C)C)OC(=O)C3(CCCC3)CNC2=O)cc1Cl,0.3 nM
14,COc1ccc(C[C@H]2NC(=O)/C=C/C[C@@H]([C@H](C)[C@H]3O[C@@H]3c3ccccc3)OC(=O)[C@H](CC(C)C)OC(=O)C(C)(C)CNC2=O)cc1Cl [CRYPTOPHYCIN 52],0.02 nM
